Experimental findings from patent US8236793B2, “Diazabicyclic aryl derivatives as cholinergic receptor modulators” (Neurosearch A/S, priority 2004, dated 2012) are described below.

Counter-ions that a name gives are not always drawn.

In the first series the target is T1, α7-subtype of nicotinic receptors (Rattus norvegicus, UniProt Q05941).
T1 construct: Cerebral cortices from male Wistar rats (150-250 g) are homogenised; from tissue; host or cells: rat cerebral cortex membrane homogenate (male Wistar rats)
T1 sequence (Q05941 23-502): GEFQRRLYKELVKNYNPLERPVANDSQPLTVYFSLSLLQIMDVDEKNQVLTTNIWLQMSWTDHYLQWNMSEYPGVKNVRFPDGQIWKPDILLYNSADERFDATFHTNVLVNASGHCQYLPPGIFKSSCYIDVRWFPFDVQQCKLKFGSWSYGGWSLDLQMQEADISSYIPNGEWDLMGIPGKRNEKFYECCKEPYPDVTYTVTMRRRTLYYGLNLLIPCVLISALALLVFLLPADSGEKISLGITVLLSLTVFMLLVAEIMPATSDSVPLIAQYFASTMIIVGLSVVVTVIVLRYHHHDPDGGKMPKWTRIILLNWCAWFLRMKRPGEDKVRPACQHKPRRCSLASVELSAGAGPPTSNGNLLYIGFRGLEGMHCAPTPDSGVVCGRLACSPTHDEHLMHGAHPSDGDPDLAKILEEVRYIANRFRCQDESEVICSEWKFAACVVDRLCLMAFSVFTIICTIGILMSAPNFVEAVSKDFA
Briefly: In vitro inhibition of 3H-α-bungarotoxine binding in rat brain. To be noted: rat cerebral cortex homogenate; 3H-α-bungarotoxine 2 nM; 2 hours at 37° C.
Broadly, the IC50 is the midpoint of a concentration-inhibition curve. Higher therefore signals a need for much substance. For the compound `C(#Cc1ccc(N2CCN3CCC2CC3)nn1)c1ccccc1` [Compound B1, 4-(6-Phenylethynyl-pyridazin-3-yl)-1,4-diaza-bicyclo[3.2.2]nonane], the half-inhibitory concentration (IC50) amounted to 60 nM. That is a double-digit nanomolar value.
On the same count and under the same terms, to `COc1ccc(C#Cc2ccc(N3CCN4CCC3CC4)nn2)cc1` [Compound B4, 4-[6-(4-Methoxy-phenylethynyl)-pyridazin-3-yl]-1,4-diaza-bicyclo[3.2.2]nonane] belongs 180 nM; to `C(#Cc1ccc(N2CCN3CCC2CC3)nn1)c1cccnc1` [Compound B5, 4-[6-(3-Pyridinlethynyl)-pyridazin-3-yl]-1,4-diaza-bicyclo[3.2.2]nonane], 150 nM; to `c1ccc(Sc2ccc(N3CCN4CCC3CC4)nn2)cc1` [Compound C1, 4-(6-Phenylsulfanyl-pyridazin-3-yl)-1,4-diaza-bicyclo[3.2.2]nonane], 600 nM.

Tested on in a further series: not given
Assay: not given
Conditions: not given
As a reminder, the melting point is the temperature, or range, at which the solid turns liquid. As to `Nc1ccc(C#Cc2ccc(N3CCN4CCC3CC4)nn2)cc1`, the melting point lay within 181.7 to 183.4 °C.
Same read-out and setting: to `CC(=O)Nc1cccc(C(=O)Nc2ccc(N3CCN4CCC3CC4)cc2)c1` belongs 184 to 187 °C; to `CC(=O)Nc1ccc(C(=O)Nc2ccc(N3CCN4CCC3CC4)cc2)cc1`, greater than 240 °C; to `CC(=O)Nc1ccc(C(=O)Nc2ccc(N3CCN4CCC3CC4)nc2)cc1`, 255 °C (dec.).
Same read-out and setting: the same measure for `CC(=O)Nc1cccc(C(=O)Nc2ccc(N3CCN4CCC3CC4)nc2)c1`: 60 °C.
On the same count and under the same terms, to `Fc1cccc(C#Cc2ccc(N3CCN4CCC3CC4)nn2)c1` (as salt: fumaric acid salt) belongs 173.5 to 175 °C; to `COc1ccc(C#Cc2ccc(N3CCN4CCC3CC4)nn2)cc1` (as salt: fumaric acid salt) [Compound B4, 4-[6-(4-Methoxy-phenylethynyl)-pyridazin-3-yl]-1,4-diaza-bicyclo[3.2.2]nonane], 208 to 209 °C; to `C(#Cc1ccc(N2CCN3CCC2CC3)nn1)c1cccnc1` (as salt: fumaric acid salt) [Compound B5, 4-[6-(3-Pyridinlethynyl)-pyridazin-3-yl]-1,4-diaza-bicyclo[3.2.2]nonane], 177.8 to 181.2 °C.
